# Experimental data from paper PMC10176470, “Engaging a Non-catalytic Cysteine Residue Drives Potent and Selective Inhibition of Caspase-6” (Journal of the American Chemical Society, 2023).
# Where two headings read alike, the source gives them in different places.
# Key:
# Format in all cases: cell-based
# [1] = target: proteins of HEK293T cells transiently overexpressing caspase-6 (Homo sapiens, UniProt P40227); details: exp_ref Probe; protein CCT6A (P40227); analysis C6
# [2] = target: proteins of HEK293T cells transiently overexpressing caspase-6 (Homo sapiens, UniProt P33991); details: exp_ref Probe; protein MCM4 (P33991); analysis C6
# [3] = target: proteins of HEK293T cells transiently overexpressing caspase-6 (Homo sapiens, UniProt P07737); details: exp_ref Probe; protein PFN1 (P07737); analysis C6
# [4] = target: proteins of HEK293T cells transiently overexpressing caspase-6 (Homo sapiens, UniProt P21796); details: Probe; protein VDAC1 P21796
# [5] = target: proteins of HEK293T cells transiently overexpressing caspase-6 (Homo sapiens, UniProt P23526); details: exp_ref Probe; protein AHCY (P23526); analysis C6
# [6] = target: proteins of HEK293T cells transiently overexpressing caspase-6 (Homo sapiens, UniProt Q14166); details: exp_ref Probe; protein TTLL12 (Q14166); analysis C6
# [7] = target: T1, proteins of HEK293T cells transiently overexpressing caspase-6 (Homo sapiens, UniProt Q07065); details: protein CKAP4 (Q07065)
# T1 sequence (Q07065 1-602): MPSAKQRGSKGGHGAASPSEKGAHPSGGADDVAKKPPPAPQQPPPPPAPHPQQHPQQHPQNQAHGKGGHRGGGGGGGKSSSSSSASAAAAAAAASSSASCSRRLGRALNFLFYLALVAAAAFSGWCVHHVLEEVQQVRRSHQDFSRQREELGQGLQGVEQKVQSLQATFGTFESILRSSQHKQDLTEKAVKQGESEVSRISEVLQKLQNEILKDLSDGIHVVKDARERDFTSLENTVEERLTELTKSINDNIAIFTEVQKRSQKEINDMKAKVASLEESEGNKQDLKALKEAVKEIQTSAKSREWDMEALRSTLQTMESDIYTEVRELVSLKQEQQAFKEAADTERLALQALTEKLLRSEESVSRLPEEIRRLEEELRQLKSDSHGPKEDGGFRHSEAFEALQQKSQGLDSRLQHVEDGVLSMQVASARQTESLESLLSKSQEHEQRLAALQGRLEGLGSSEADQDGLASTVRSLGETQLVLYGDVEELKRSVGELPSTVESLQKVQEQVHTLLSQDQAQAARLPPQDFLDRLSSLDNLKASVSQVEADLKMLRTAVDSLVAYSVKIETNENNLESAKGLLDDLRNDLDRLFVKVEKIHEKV
# [8] = target: proteins of HEK293T cells transiently overexpressing caspase-6 (Homo sapiens, UniProt P34897); details: Probe; protein SHMT2 P34897
# [9] = target: T2, proteins of HEK293T cells transiently overexpressing caspase-6 (Homo sapiens, UniProt Q00325); details: protein SLC25A3 (Q00325)
# T2 sequence (Q00325 50-362): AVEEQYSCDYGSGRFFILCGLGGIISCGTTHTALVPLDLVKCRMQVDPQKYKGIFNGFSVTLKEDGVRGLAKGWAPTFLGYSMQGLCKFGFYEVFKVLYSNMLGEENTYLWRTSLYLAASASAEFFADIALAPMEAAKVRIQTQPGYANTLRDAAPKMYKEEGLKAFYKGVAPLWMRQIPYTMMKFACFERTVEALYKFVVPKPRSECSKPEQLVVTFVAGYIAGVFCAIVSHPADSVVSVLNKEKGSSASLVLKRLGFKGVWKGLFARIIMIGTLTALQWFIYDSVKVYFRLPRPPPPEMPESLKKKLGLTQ
# [10] = target: proteins of HEK293T cells transiently overexpressing caspase-6 (Homo sapiens, UniProt Q9Y5B9); details: Probe; protein SUPT16H Q9Y5B9
# [11] = target: proteins of HEK293T cells transiently overexpressing caspase-6 (Homo sapiens, UniProt P12277); details: protein CKB (P12277)
# [12] = target: proteins of HEK293T cells transiently overexpressing caspase-6 (Homo sapiens, UniProt Q99497); details: exp_ref Probe; protein PARK7 (Q99497); analysis C6
# Chain of proteins of HEK293T cells transiently overexpressing caspase-6 (Homo sapiens, UniProt Q99497) (Q99497 whole entry): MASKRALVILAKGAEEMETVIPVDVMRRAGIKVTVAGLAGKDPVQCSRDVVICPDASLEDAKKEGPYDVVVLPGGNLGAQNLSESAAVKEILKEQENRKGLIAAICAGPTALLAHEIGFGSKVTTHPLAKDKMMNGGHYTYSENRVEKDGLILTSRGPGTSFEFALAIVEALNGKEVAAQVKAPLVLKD
# Chain of proteins of HEK293T cells transiently overexpressing caspase-6 (Homo sapiens, UniProt P12277) (P12277 whole entry): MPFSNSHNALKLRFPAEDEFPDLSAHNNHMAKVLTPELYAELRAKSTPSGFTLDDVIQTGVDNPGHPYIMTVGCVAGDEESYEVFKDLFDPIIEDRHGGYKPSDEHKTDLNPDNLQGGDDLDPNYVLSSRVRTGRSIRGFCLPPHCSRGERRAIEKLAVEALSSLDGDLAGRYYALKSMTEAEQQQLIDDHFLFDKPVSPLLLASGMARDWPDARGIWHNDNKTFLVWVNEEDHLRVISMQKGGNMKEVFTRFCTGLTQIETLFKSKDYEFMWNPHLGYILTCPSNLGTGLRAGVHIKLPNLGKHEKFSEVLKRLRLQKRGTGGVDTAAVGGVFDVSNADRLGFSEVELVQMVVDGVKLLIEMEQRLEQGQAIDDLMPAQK
# Chain of proteins of HEK293T cells transiently overexpressing caspase-6 (Homo sapiens, UniProt P23526) (P23526 whole entry): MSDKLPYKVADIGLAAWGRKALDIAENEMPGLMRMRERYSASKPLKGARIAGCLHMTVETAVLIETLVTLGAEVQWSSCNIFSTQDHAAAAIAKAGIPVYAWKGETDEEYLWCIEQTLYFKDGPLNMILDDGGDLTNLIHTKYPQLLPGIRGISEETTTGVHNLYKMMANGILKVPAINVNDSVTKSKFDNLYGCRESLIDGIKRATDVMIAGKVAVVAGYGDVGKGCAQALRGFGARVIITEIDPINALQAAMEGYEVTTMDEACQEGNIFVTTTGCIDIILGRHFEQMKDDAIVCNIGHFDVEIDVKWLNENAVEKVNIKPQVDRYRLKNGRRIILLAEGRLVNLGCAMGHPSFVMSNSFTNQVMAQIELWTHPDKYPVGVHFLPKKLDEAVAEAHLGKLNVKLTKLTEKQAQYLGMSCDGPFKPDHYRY
# Chain of proteins of HEK293T cells transiently overexpressing caspase-6 (Homo sapiens, UniProt P40227) (P40227 whole entry): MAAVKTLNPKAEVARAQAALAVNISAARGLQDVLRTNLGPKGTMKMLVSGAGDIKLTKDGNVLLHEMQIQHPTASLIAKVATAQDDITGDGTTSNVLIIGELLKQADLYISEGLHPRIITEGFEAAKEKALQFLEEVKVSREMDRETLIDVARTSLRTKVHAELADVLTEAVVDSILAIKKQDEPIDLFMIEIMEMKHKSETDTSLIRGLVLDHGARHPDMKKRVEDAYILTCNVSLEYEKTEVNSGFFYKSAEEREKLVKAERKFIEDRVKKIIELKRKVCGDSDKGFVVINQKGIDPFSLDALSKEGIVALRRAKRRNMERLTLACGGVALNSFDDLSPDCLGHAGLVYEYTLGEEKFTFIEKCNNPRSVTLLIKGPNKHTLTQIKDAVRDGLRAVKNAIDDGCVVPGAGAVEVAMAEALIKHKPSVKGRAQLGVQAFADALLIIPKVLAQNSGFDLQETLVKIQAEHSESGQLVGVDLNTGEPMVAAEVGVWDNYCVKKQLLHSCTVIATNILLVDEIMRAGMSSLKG
# Chain of proteins of HEK293T cells transiently overexpressing caspase-6 (Homo sapiens, UniProt Q14166) (Q14166 whole entry): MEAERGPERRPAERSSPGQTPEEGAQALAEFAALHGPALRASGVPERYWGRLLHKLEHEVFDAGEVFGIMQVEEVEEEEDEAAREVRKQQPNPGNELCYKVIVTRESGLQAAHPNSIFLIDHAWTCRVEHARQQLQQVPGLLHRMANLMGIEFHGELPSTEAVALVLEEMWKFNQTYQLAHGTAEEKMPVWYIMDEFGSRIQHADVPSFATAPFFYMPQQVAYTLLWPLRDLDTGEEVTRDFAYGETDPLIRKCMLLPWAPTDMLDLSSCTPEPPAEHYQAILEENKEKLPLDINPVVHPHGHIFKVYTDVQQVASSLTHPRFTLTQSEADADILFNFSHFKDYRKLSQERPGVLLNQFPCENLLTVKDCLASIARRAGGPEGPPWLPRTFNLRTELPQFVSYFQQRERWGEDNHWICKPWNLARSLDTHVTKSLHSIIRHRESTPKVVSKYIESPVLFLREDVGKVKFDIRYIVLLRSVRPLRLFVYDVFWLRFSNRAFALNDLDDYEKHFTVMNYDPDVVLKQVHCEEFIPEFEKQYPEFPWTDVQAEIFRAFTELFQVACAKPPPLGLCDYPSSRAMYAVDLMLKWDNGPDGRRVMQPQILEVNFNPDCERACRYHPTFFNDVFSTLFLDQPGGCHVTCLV
# Chain of proteins of HEK293T cells transiently overexpressing caspase-6 (Homo sapiens, UniProt P33991) (P33991 whole entry): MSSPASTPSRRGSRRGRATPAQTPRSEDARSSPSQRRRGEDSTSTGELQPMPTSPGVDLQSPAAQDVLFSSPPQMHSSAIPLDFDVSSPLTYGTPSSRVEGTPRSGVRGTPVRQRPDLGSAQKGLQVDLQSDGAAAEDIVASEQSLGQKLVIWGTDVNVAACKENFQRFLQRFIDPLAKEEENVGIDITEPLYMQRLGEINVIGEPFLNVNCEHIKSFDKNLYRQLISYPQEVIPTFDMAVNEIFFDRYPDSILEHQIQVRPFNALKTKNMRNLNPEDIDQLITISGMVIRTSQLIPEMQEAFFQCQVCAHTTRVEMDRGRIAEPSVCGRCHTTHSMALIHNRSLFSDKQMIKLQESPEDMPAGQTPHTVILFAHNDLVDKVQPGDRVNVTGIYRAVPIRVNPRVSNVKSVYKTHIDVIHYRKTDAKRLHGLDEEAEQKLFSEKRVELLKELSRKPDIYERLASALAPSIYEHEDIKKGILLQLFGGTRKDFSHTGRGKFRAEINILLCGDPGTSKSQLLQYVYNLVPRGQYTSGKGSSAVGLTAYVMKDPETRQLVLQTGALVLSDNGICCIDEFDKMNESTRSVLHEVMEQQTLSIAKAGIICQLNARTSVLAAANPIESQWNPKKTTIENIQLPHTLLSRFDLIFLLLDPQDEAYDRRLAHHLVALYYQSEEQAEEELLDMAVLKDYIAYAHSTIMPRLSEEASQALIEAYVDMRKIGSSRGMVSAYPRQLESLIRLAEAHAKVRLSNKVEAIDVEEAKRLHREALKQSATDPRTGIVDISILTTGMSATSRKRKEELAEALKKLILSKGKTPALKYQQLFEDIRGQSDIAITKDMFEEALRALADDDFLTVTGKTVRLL
# Chain of proteins of HEK293T cells transiently overexpressing caspase-6 (Homo sapiens, UniProt P21796) (P21796 whole entry): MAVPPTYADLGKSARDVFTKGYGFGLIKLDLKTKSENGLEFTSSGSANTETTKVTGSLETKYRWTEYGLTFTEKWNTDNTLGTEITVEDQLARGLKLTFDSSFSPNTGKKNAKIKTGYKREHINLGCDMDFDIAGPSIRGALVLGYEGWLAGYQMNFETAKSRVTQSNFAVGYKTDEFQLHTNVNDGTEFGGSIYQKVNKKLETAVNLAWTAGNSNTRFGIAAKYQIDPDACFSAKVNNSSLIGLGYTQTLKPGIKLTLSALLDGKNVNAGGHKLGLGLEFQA
# Chain of proteins of HEK293T cells transiently overexpressing caspase-6 (Homo sapiens, UniProt P34897) (P34897 30-504): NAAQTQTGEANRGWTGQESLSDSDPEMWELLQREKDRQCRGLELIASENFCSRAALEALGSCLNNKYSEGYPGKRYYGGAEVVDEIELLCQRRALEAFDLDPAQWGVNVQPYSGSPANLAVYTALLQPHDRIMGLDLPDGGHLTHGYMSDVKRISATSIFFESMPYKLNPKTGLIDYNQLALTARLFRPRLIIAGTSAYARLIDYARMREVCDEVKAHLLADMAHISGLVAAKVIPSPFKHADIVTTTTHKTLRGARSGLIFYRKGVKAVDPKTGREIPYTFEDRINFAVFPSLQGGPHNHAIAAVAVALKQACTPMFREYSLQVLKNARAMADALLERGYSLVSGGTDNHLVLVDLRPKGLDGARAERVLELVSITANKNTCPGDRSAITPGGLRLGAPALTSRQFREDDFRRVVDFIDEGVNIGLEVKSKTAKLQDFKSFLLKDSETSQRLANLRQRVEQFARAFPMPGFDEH
# Chain of proteins of HEK293T cells transiently overexpressing caspase-6 (Homo sapiens, UniProt P07737) (P07737 whole entry): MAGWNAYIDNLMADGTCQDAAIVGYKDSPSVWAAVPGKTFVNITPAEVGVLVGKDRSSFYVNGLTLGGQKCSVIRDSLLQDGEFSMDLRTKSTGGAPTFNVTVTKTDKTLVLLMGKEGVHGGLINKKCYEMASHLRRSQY
# Chain of proteins of HEK293T cells transiently overexpressing caspase-6 (Homo sapiens, UniProt Q9Y5B9) (Q9Y5B9 whole entry): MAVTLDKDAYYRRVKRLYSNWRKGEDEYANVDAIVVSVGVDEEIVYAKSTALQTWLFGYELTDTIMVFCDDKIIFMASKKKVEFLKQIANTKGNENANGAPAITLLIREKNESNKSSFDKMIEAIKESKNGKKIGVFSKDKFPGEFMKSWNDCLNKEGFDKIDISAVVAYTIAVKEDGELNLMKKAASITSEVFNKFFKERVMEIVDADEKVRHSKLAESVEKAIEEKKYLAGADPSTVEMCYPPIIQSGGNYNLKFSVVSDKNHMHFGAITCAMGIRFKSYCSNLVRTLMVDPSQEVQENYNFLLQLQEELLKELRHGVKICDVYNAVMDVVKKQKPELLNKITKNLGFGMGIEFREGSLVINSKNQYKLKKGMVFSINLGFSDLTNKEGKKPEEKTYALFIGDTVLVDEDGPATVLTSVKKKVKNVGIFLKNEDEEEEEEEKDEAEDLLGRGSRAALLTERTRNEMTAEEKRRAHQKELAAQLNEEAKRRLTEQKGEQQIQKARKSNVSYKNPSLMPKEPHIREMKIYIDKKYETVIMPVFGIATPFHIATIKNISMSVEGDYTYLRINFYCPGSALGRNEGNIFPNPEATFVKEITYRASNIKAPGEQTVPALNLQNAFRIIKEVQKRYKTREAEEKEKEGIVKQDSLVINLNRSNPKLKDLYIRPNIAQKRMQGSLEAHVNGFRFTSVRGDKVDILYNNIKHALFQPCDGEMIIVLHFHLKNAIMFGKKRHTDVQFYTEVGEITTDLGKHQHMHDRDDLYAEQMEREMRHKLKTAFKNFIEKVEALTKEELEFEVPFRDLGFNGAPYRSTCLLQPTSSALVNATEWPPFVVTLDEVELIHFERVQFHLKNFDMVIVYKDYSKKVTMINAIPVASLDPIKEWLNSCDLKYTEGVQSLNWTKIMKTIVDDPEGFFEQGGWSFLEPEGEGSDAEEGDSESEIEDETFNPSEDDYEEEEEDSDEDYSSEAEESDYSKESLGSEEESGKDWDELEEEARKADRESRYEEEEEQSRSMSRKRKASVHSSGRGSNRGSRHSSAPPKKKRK
compound,measurement,setting,value
C#CCOc1ccc([C@@H]2C[C@@H](C(=O)Nc3ccc(OC(F)(F)F)cc3)CN(S(=O)(=O)C=C)C2)cc1 (relative stereo) [13-t],enrich.exp.med,[1],0.2516
same,enrich.exp.med,[2],1.006
same,enrich.exp.med,[3],-0.1003
same,enrich.exp.med,[4],-1.18
same,enrich.exp.med,[5],0.06916
same,enrich.exp.med,[6],-0.1545
same,enrich.exp.med.lin,[7],4.971
same,enrich.exp.med.log2,[7],2.313
same,enrich.exp.med.lin,"[7]; Expt Probe, analysis C6",4.971
same,enrich.exp.med.log2,"[7]; Expt Probe, analysis C6",2.313
same,enrich.exp.med,"[7]; exp_ref Probe, analysis C6",2.313
same,enrich.exp.med,[8],-2.762
same,enrich.exp.med,"[9]; exp_ref Probe, analysis C6",0.6055
same,enrich.exp.med.lin,[9],1.522
same,enrich.exp.med.log2,[9],0.6055
same,enrich.exp.med,[10],-0.5962
same,enrich.exp.med,"[11]; exp_ref Probe, analysis C6",0.5567
same,enrich.exp.med.lin,[11],1.4709
same,enrich.exp.med.log2,[11],0.5567
same,enrich.exp.med,[12],0.478
